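Cultured in 96-well plates, cells were exposed to test compound for 48 hours across five concentrations. TGI marks complete inhibition of growth.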
Key:
Assay in all cases: NCI-60 cell line screen, 48 h
[1] = system: 786-0 renal
[2] = system: A498 renal
[3] = system: A549 NSCLC
[4] = system: ACHN renal
[5] = system: BT-549 breast
[6] = system: CAKI-1 renal
[7] = system: CCRF-CEM leukemia
[8] = system: COLO 205 colon
[9] = system: DU-145 prostate
[10] = system: EKVX NSCLC
[11] = system: HCC-2998 colon
[12] = system: HCT-116 colon
[13] = system: HCT-15 colon
[14] = system: HL-60(TB) leukemia
[15] = system: HOP-62 NSCLC
[16] = system: HOP-92 NSCLC
[17] = system: HS 578T breast
[18] = system: HT29 colon
[19] = system: IGROV1 ovarian
[20] = system: K-562 leukemia
[21] = system: KM12 colon
[22] = system: LOX IMVI melanoma
[23] = system: M14 melanoma
[24] = system: MALME-3M melanoma
[25] = system: MCF7 breast
[26] = system: MDA-MB-231 breast
[27] = system: MDA-MB-435
[28] = system: MDA-N
[29] = system: MOLT-4 leukemia
[30] = system: NCI-H226 lung
[31] = system: NCI-H23 lung
[32] = system: NCI-H460 lung
[33] = system: NCI-H522 lung
[34] = system: NCI/ADR-RES ovarian
[35] = system: OVCAR-3 ovarian
[36] = system: OVCAR-4 ovarian
[37] = system: OVCAR-5 ovarian
[38] = system: OVCAR-8 ovarian
[39] = system: PC-3 prostate
[40] = system: RPMI-8226 leukemia
[41] = system: RXF 393 renal
[42] = system: SF-268 CNS
[43] = system: SF-295 CNS
[44] = system: SF-539 CNS
[45] = system: SK-MEL-2 melanoma
[46] = system: SK-MEL-28 melanoma
[47] = system: SK-MEL-5 melanoma
[48] = system: SK-OV-3 ovarian
[49] = system: SN12C renal
[50] = system: SNB-19 CNS
[51] = system: SNB-75 CNS
[52] = system: SR leukemia
[53] = system: SW-620 colon
[54] = system: T-47D breast
[55] = system: TK-10 renal
[56] = system: U251 CNS
[57] = system: UACC-257 melanoma
[58] = system: UACC-62 melanoma
[59] = system: UO-31 renal
[60] = system: DLD-1 colon
[61] = system: HOP-18 NSCLC
[62] = system: KM20L2 colon
[63] = system: LXFL 529 NSCLC
[64] = system: M19-MEL melanoma
[65] = system: SNB-78 CNS
[66] = system: XF 498 CNS

Measured: TGI

COC(=O)c1ccccc1C1CN=NC12Cc1ccc(C)cc1C2=O (centres undefined)
not listed: [60] | [61] | [62] | [63] | [64] | [65] | [66]
> 100 µM: all other assays above

C[N+](C)(C)CC1CCC(C[N+](C)(C)C)C1=NO (centres undefined)
not listed: [5] | [6] | [9] | [11] | [16] | [17] | [25] | [26] | [27] | [28] | [32] | [34] | [37] | [39] | [54] | [55]
> 100 µM: all other assays above

Source: PubChem BioAssay (NCI)
